These results are taken from PubChem BioAssay AID252 (DTP/NCI, 2004).

For the test, the system named is BDF1 mice, intracerebral L1210 leukemia, survival T/C. Briefly: NCI In Vivo Anticancer Drug Screen. Data for tumor model L1210 Leukemia (intracerebral) in B6D2F1 (BDF1) mice. The note with it: higher = longer survival. How it is done:
The antitumor activity of compounds was measured in mice bearing transplantable tumors. Survival or tumor size were measured and the results are expressed as the measurement made in the treated group (T) divided by the measurement made in the vehicle treated control group (C). The tumor model used in this assay is L1210 Leukemia (intracerebral) in B6D2F1 (BDF1) mice

Structures are written as SMILES. “And” between values parts separate entries of the source, which are not always exact repeats. Equal values may be shown once. Toxic doses and inconclusive results are not listed.

Consider `O=NN(CCCl)C(=O)NC1CCS(=O)(=O)C1` (stereo not drawn) (tested in a mixture with another compound), for which the T/C reads like this: (endpoint: mean survival time, dose: 14.0 mg/kg/injection, schedule: Q01DX001 (oral), vehicle: other) 172 % of control; (endpoint: mean survival time, dose: 16.0 mg/kg/injection, schedule: Q01DX001 (ip), vehicle: other) 156 % of control; (endpoint: mean survival time, dose: 22.0 mg/kg/injection, schedule: Q01DX001 (oral), vehicle: other) 217 % of control; (endpoint: mean survival time, dose: 36.0 mg/kg/injection, schedule: Q01DX001 (ip), vehicle: other) 121 % of control; (endpoint: mean survival time, dose: 48.0 mg/kg/injection, schedule: Q01DX001 (oral), vehicle: other) 116 % of control.

On to `CCCCn1cnc2c(SC3CCCC3)ncnc21`, for which the T/C was 101 % of control (endpoint: mean survival time, dose: 125.0 mg/kg/injection, schedule: Q01DX001 (ip), vehicle: carboxymethylcellulose (CMC)); 108 % of control (endpoint: mean survival time, dose: 250.0 mg/kg/injection, schedule: Q01DX001 (ip), vehicle: carboxymethylcellulose (CMC)); 119 % of control (endpoint: mean survival time, dose: 500.0 mg/kg/injection, schedule: Q01DX001 (ip), vehicle: carboxymethylcellulose (CMC)).

For the compound `Cc1ccc(S(=O)(=O)NC(=O)N(CCCl)N=O)cc1`, the T/C reads like this: (endpoint: mean survival time, dose: 31.0 mg/kg/injection, schedule: Q01DX001 (ip), vehicle: other) 119 % of control; (endpoint: mean survival time, dose: 62.0 mg/kg/injection, schedule: Q01DX001 (ip), vehicle: other) 116 % of control; (endpoint: mean survival time, dose: 140.0 mg/kg/injection, schedule: Q01DX001 (ip), vehicle: other) 115 % of control.

In the case of `COC(=O)c1ccccc1N=NN(C)C`, the T/C was 114 % of control (endpoint: median survival time, dose: 10.0 mg/kg/injection, schedule: Q01DX009 (ip), vehicle: saline with Tween-80) and 97 % of control (endpoint: median survival time, dose: 20.0 mg/kg/injection, schedule: Q01DX009 (ip), vehicle: saline with Tween-80).

Consider `S=P(N1CC1)(N1CC1)N1CC1`, for which the T/C (endpoint: mean survival time, dose: 10.0 mg/kg/injection, schedule: Q01DX001 (ip), vehicle: saline) is 154 % of control and the T/C (endpoint: mean survival time, dose: 15.0 mg/kg/injection, schedule: Q01DX001 (ip), vehicle: saline) was 228 % of control.

Regarding `Cc1cccc2c(Nc3ccc(NS(C)(=O)=O)cc3)c3ccc([N+](=O)[O-])cc3nc12`, the T/C runs as follows: (endpoint: mean survival time, dose: 10.0 mg/kg/injection, schedule: Q01DX009 (ip), vehicle: saline) 114 % of control; (endpoint: mean survival time, dose: 10.0 mg/kg/injection, schedule: Q01DX009 (sc), vehicle: saline) 104 % of control; (endpoint: mean survival time, dose: 20.0 mg/kg/injection, schedule: Q01DX009 (ip), vehicle: saline) 94 % of control; (endpoint: mean survival time, dose: 20.0 mg/kg/injection, schedule: Q01DX009 (sc), vehicle: saline) 101 % of control; (endpoint: mean survival time, dose: 40.0 mg/kg/injection, schedule: Q01DX009 (sc), vehicle: saline) 96 % of control.

Regarding `Nc1nc(=O)n(C2OC(CO)C(O)C2O)cc1F` (stereo not drawn), the T/C is, setting by setting: (endpoint: median survival time, dose: 1.0 mg/kg/injection, schedule: Q01DX009 (ip), vehicle: saline) 116 % of control; (endpoint: median survival time, dose: 2.0 mg/kg/injection, schedule: Q01DX009 (ip), vehicle: saline) 124 % of control; (endpoint: median survival time, dose: 4.0 mg/kg/injection, schedule: Q01DX009 (ip), vehicle: saline) 124 % of control; (endpoint: median survival time, dose: 8.0 mg/kg/injection, schedule: Q01DX009 (ip), vehicle: saline) 153 % of control; (endpoint: median survival time, dose: 8.0 mg/kg/injection, schedule: Q01DX009 (ip), vehicle: water) 173 % of control; (endpoint: median survival time, dose: 16.0 mg/kg/injection, schedule: Q01DX009 (ip), vehicle: saline) 179 % of control. Moreover, the T/C is, setting by setting: (endpoint: median survival time, dose: 16.0 mg/kg/injection, schedule: Q01DX009 (ip), vehicle: water) 212 % of control; (endpoint: median survival time, dose: 32.0 mg/kg/injection, schedule: Q01DX009 (ip), vehicle: saline) 201 % of control; (endpoint: median survival time, dose: 32.0 mg/kg/injection, schedule: Q01DX009 (ip), vehicle: water) 234 % of control; (endpoint: median survival time, dose: 64.0 mg/kg/injection, schedule: Q01DX009 (ip), vehicle: saline) 228 % of control; (endpoint: median survival time, dose: 64.0 mg/kg/injection, schedule: Q01DX009 (ip), vehicle: water) 247 % of control; (endpoint: median survival time, dose: 128.0 mg/kg/injection, schedule: Q01DX009 (ip), vehicle: water) 89 % of control. Also, the T/C (endpoint: median survival time, dose: 512.0 mg/kg/injection, schedule: Q01DX009 (ip), vehicle: saline) is 98 % of control.

`CN(N=O)C(=O)Nc1c[nH]c(=O)[nH]c1=O`: the T/C reads like this: (endpoint: mean survival time, dose: 60.0 mg/kg/injection, schedule: Q01DX001 (ip), vehicle: saline) 103 % of control; (endpoint: mean survival time, dose: 120.0 mg/kg/injection, schedule: Q01DX001 (ip), vehicle: saline) 104 % of control; (endpoint: mean survival time, dose: 480.0 mg/kg/injection, schedule: Q01DX001 (ip), vehicle: saline) 108 % of control; (endpoint: mean survival time, dose: 960.0 mg/kg/injection, schedule: Q01DX001 (ip), vehicle: saline) 86 % of control.

Consider `O=C(NO)c1ccncc1`, for which the T/C was 91 % of control (endpoint: mean survival time, dose: 100.0 mg/kg/injection, schedule: Q01DX009 (ip), vehicle: water); 92 % of control (endpoint: mean survival time, dose: 200.0 mg/kg/injection, schedule: Q01DX009 (ip), vehicle: water); 86 % of control (endpoint: mean survival time, dose: 400.0 mg/kg/injection, schedule: Q01DX009 (ip), vehicle: water); 89 % of control (endpoint: mean survival time, dose: 600.0 mg/kg/injection, schedule: Q01DX009 (ip), vehicle: water).

Turning to `CCOC(=O)C(CC(C)C)NC(=O)C(Cc1ccc(N(CCCl)CCCl)cc1)NC(C)=O` (stereo not drawn), the T/C by setting is: (endpoint: mean survival time, dose: 2.0 mg/kg/injection, schedule: Q01DX009 (ip), vehicle: DMSO) 90 % of control; (endpoint: mean survival time, dose: 4.0 mg/kg/injection, schedule: Q01DX009 (ip), vehicle: DMSO) 92 % of control.

For the compound `N=c1nc2n(cc1F)[C@@H]1O[C@H](CO)[C@@H](O)[C@@H]1O2`, the T/C runs as follows: (endpoint: median survival time, dose: 100.0 mg/kg/injection, schedule: Q01DX009 (ip), vehicle: saline) 186 % of control; (endpoint: median survival time, dose: 200.0 mg/kg/injection, schedule: Q01DX009 (ip), vehicle: saline) 204 % of control; (endpoint: median survival time, dose: 400.0 mg/kg/injection, schedule: Q01DX009 (ip), vehicle: saline) 344 % of control.

For `O=c1[nH]cc(F)c(=O)[nH]1`, the T/C by setting is: (endpoint: mean survival time, dose: 12.76 mg/kg/injection, schedule: Q01DX015 (ip), vehicle: carboxymethylcellulose (CMC)) 100 % of control; (endpoint: mean survival time, dose: 19.43 mg/kg/injection, schedule: Q01DX015 (ip), vehicle: carboxymethylcellulose (CMC)) 111 % of control; (endpoint: mean survival time, dose: 29.0 mg/kg/injection, schedule: Q01DX015 (ip), vehicle: carboxymethylcellulose (CMC)) 113 % of control; (endpoint: mean survival time, dose: 79.5 mg/kg/injection, schedule: Q01DX001 (ip), vehicle: carboxymethylcellulose (CMC)) 112 % of control; (endpoint: median survival time, dose: 8.4 mg/kg/injection, schedule: Q01DX009 (ip), vehicle: saline) 105 % of control; (endpoint: median survival time, dose: 14.0 mg/kg/injection, schedule: Q01DX009 (ip), vehicle: saline) 108 % of control. In addition, the T/C is, setting by setting: (endpoint: median survival time, dose: 23.0 mg/kg/injection, schedule: Q04DX003 (ip), vehicle: saline) 108 % of control; (endpoint: median survival time, dose: 39.0 mg/kg/injection, schedule: Q01DX009 (ip), vehicle: saline) 107 % of control; (endpoint: median survival time, dose: 39.0 mg/kg/injection, schedule: Q04DX003 (ip), vehicle: saline) 118 % of control; (endpoint: median survival time, dose: 65.0 mg/kg/injection, schedule: Q01DX009 (ip), vehicle: saline) 96 % of control; (endpoint: median survival time, dose: 108.0 mg/kg/injection, schedule: Q04DX003 (ip), vehicle: saline) 156 % of control; (endpoint: median survival time, dose: 180.0 mg/kg/injection, schedule: Q04DX003 (ip), vehicle: saline) 99 % of control.

For the compound `O=C(Nc1ccc(C2=NCCN2)cc1)c1ccc(C(=O)Nc2ccc(C3=NCCN3)cc2)c(Cl)c1`, the T/C was 112 % of control (endpoint: mean survival time, dose: 12.0 mg/kg/injection, schedule: Q01DX015 (ip), vehicle: carboxymethylcellulose (CMC)); 114 % of control (endpoint: mean survival time, dose: 12.5 mg/kg/injection, schedule: Q01DX Z (ip), vehicle: carboxymethylcellulose (CMC)); 120 % of control (endpoint: mean survival time, dose: 18.0 mg/kg/injection, schedule: Q01DX015 (ip), vehicle: carboxymethylcellulose (CMC)); 108 % of control (endpoint: mean survival time, dose: 25.0 mg/kg/injection, schedule: Q01DX Z (ip), vehicle: carboxymethylcellulose (CMC)); 118 % of control (endpoint: mean survival time, dose: 27.0 mg/kg/injection, schedule: Q01DX015 (ip), vehicle: carboxymethylcellulose (CMC)); 102 % of control (endpoint: mean survival time, dose: 37.5 mg/kg/injection, schedule: Q01DX Z (ip), vehicle: carboxymethylcellulose (CMC)). For the same compound, the T/C is, setting by setting: (endpoint: mean survival time, dose: 48.0 mg/kg/injection, schedule: Q01DX001 (ip), vehicle: carboxymethylcellulose (CMC)) 98 % of control; (endpoint: mean survival time, dose: 48.4 mg/kg/injection, schedule: Q01DX001 (ip), vehicle: carboxymethylcellulose (CMC)) 102 % of control; (endpoint: mean survival time, dose: 50.0 mg/kg/injection, schedule: Q01DX Z (ip), vehicle: carboxymethylcellulose (CMC)) 96 % of control; (endpoint: mean survival time, dose: 74.0 mg/kg/injection, schedule: Q01DX001 (ip), vehicle: carboxymethylcellulose (CMC)) 107 % of control and 100 % of control.
